From a compilation of properties of binary mixtures (doi:10.1016/j.electacta.2009.09.024)

Test: xn = mol fraction of the nth substance listed
Conditions: 100 kPa, x2 = 0.25

**Q.** Which electrical conductivity (442.2 K) does the source give for `O=S(=O)([N-]S(=O)(=O)C(F)(F)F)C(F)(F)F.[Rb+]` + O=S(=O)([N-]S(=O)(=O)C(F)(F)F)C(F)(F)F.[Li+] here?
**A.** The electrical conductivity was 0.822 S/m.

**Q.** And the viscosity (442.5 K)?
**A.** Its viscosity is 63.2 mPa·s.

**Q.** What about the electrical conductivity (452.2 K) of the same compound?
**A.** The electrical conductivity was 1.05 S/m.

**Q.** What about the electrical conductivity (462.7 K) of the same compound?
**A.** Its electrical conductivity is 1.28 S/m.

**Q.** What about the electrical conductivity (473.7 K) of the same compound?
**A.** Its electrical conductivity is 1.52 S/m.

**Q.** What about the viscosity (473.9 K) of the same compound?
**A.** The viscosity was 28.1 mPa·s.

**Q.** And the electrical conductivity (482.9 K)?
**A.** Its electrical conductivity is 1.86 S/m.

**Q.** And the electrical conductivity (492.3 K)?
**A.** The electrical conductivity was 2.15 S/m.

**Q.** What about the viscosity (492.6 K) of the same compound?
**A.** The viscosity was 17.9 mPa·s.

**Q.** What about the electrical conductivity (502.4 K) of the same compound?
**A.** The electrical conductivity was 2.48 S/m.

**Q.** And the viscosity (502.5 K)?
**A.** The viscosity was 14.3 mPa·s.

**Q.** And the viscosity (512.8 K)?
**A.** Its viscosity is 11.8 mPa·s.

**Q.** And the electrical conductivity (523.1 K)?
**A.** Its electrical conductivity is 3.2 S/m.

**Q.** What about the electrical conductivity (543.3 K) of the same compound?
**A.** Its electrical conductivity is 4.03 S/m.

**Q.** And the viscosity (543.5 K)?
**A.** The viscosity was 7.21 mPa·s.

**Q.** And the electrical conductivity (551.9 K)?
**A.** The electrical conductivity was 4.33 S/m.

**Q.** What about the viscosity (552.5 K) of the same compound?
**A.** The viscosity was 6.61 mPa·s.

**Q.** And the electrical conductivity (561.2 K)?
**A.** The electrical conductivity was 4.79 S/m.

**Q.** And the viscosity (561.8 K)?
**A.** Its viscosity is 5.8 mPa·s.

**Q.** And the electrical conductivity (571.1 K)?
**A.** Its electrical conductivity is 5.08 S/m.
